Laboratory results as given in patent publication US5278187A, “Pharmaceutical compositions” (British Technology Group Ltd., priority 1985, dated 1994).
Converted amounts (≈) assume the structure as drawn. Like-named read-outs stand apart in the source and are kept apart here.

How the values were obtained:
[1] = tested on: human adenocarcinoma cells of the colon (LOVO); assay: Cytotoxic effect on LOVO cells, colony formation in culture; type: cell-based; conditions: dose required to reduce by 50% the number of colonies, 37° C., 12-14 days, read-out: ID50 LOVO
Protocol: (§1) (A) The cytotoxic effects of a variety of compounds of formula (II) on human adenocarcinoma cells of the colon (LOVO) and human mammary epithelial tumor cells (MCF7) grown in culture were studied. A range of doses of the drugs was added on day one to replicate cultures of several hundred cells each, which were then incubated at 37° C. for 12-14 days. The cultures were then fixed and stained and the numbers of colonies per dish counted. The results obtained are shown in Table 1, the individual compounds being identified by the groups R1, R2 and R3 present therein, the last mentioned compound being the compound of formula (I) having R1 =H and R2 =CH3 which is used as a control. The results are expressed in terms of the ID50 which is the dose required to reduce by 50% the number of colonies growing up in the drug-treated cultures compared with untreated controls.

[2] = tested on: human mammary epithelial tumor cells (MCF7); assay: Cytotoxic effect on MCF7 cells, colony formation in culture; type: cell-based; conditions: dose required to reduce by 50% the number of colonies, 37° C., 12-14 days, read-out: ID50 MCF7
Protocol: as §1

Water solubility = type: physicochemical
From the text: By modification of the nature of the ester groups it is possible to alter the water solubility, lipophilicity and rate of conversion to the active cytotoxic molecules (I). […] Similarly, increased lipophilicity may be obtained in these prodrugs by the introduction of, for example, hydrocarbon groupings such as isobutyl or benzyl and this is reflected by the relatively high Rf values in a 50% v/v chloroform/ethanol/SiO2 thin layer chromatography system as recorded in the Examples given hereinafter. An increased lipophilicity favours better absorption and changes in tissue distribution such as greater penetration of the central nervous system. The more lipophilic products are also the most attractive candidates for the percutaneous treatment of psoriasis. Further, depending upon whether R3 is an electron-withdrawing group, for example benzyl, propargyl or carbethoxymethyl, or an electron-repelling group, for example isobutyl, hydroxyethyl or methoxyethyl, the rate of conversion of the compound (II) to the corresponding compound (I) can be speeded up or slowed down. Thus, by providing some control over the water solubility, lipophilicity and rate of generation of the active species, the prodrug compounds of the present invention provide the ability to modify the tissue distribution and pharmacodynamics of the dioxopiperazine drugs with consequential therapeutic benefit to the patient.

[3] = Incubation under physiological conditions: formation of (I) from the 14C-labelled dimethyl ester and hydrolysis of the diimide (HPLC); type: physicochemical; conditions: pH 7.2, 37° C.
Protocol: (B) The rate of formation of the active antitumor agent (I) having R1 […] R2 =H from the corresponding ^14 C-labelled dimethyl ester (II) (R1 =R2 =H, R3 =CH3) following incubation under physiologically conditions, i.e. at 37° C. and pH and 7.2 in normal (0.15M) phosphate buffered saline [Practical Immunology, Hudson and hay (editors), Blackwell Scientific Publications, Second Edition, 1980, page 336] was studied. Sample of the incubation mixture were fractionated at different time intervals using HPLC with a reverse phase ODS column and an aqueous methanol gradient elution system.

Absorption by mouth = type: in vivo; conditions: oral; in words
[4] = esters corresponding to the diimide (I) in which R1 =R2 =H, read-out: water solubilities

Structure (SMILES): CC(CN1CC(=O)NC(=O)C1)N1CC(=O)NC(=O)C1 (stereo not drawn) [R1=CH3, R2=H, cyclic imide, reference compound]
- IC50 [1]: 18 µM
- IC50 [2]: 17 µM

Structure (SMILES): CCCCOCCOC(=O)CN(CCN(CC(N)=O)CC(=O)OCCOCCCC)CC(N)=O [R1=H, R2=H, R3=CH2 CH2 O(CH2)3 CH3, NN'-Di-(2-n-butoxyethoxy)carbonylmethyl-NN'-diaminocarbonylmethyl-1,2-diaminoethane]
- IC50 [1]: 47 µM
- IC50 [2]: 36 µM

Structure (SMILES): NC(=O)CN(CCN(CC(N)=O)CC(=O)OCCO)CC(=O)OCCO [R1=H, R2=H, R3=CH2 CH2 OH, NN'-Di-(2-hydroxyethoxy)carbonylmethyl-NN'-diaminocarbonylmethyl-1,2-diaminoethane]
- solubility (Water solubility; [4]): > 20 mg/mL

Structure (SMILES): O=C1CN(CCN2CC(=O)NC(=O)C2)CC(=O)N1 [diimide (I) R1=R2=H, 1,2-bis-(3,5-dioxopiperazin-1-yl)ethane, reference compound]
- solubility (Water solubility; 20° C., pH 7.2, read-out: water solubility): ~0.1 mg/mL (≈ 0.393 mM)
- half-life ([3]; normal (0.15M) phosphate buffered saline, read-out: half life (hydrolysis to an inactive form) (converted)): ~12 h
- absorption by mouth (Absorption by mouth): not being well absorbed by mouth

Structure (SMILES): CC(CN(CC(N)=O)CC(=O)OCc1ccc([N+](=O)[O-])cc1)N(CC(N)=O)CC(=O)OCc1ccc([N+](=O)[O-])cc1 (racemic) [R1=CH3, R2=H, R3=p-NO2 --CH2 C6 H5, dl-NN'-Di-p-nitrobenzyloxycarbonylmethyl-NN'-diaminocarbonylmethyl-1,2-diaminopropane]
- IC50 [1]: 14 µM
- IC50 [2]: 21 µM

Structure (SMILES): COC(=O)CN(CCN(CC(N)=O)CC(=O)OC)CC(N)=O [R1=H, R2=H, R3=CH3, NN'-Dimethoxycarbonylmethyl-NN'-diaminocarbonylmethyl-1,2-diaminoethane]
- IC50 [1]: 28 µM
- IC50 [2]: 39 µM
- solubility (Water solubility; [4]): > 20 mg/mL
- formation of the active cytotoxic species (I) by cyclisation of the bis-ester ([3]; 0.15M phosphate buffered saline, the Figure, in words): leads to a sustained concentration of the active cytotoxic species

Structure (SMILES): CC(CN(CC(N)=O)CC(=O)OCc1ccccc1)N(CC(N)=O)CC(=O)OCc1ccccc1 (racemic) [R1=CH3, R2=H, R3=CH2 C6 H5, dl-NN'-Dibenzyloxycarbonylmethyl-NN'-diaminocarbonylmethyl-1,2-diaminopropane]
- IC50 [1]: 17 µM
- IC50 [2]: 22 µM

Structure (SMILES): CC(C)COC(=O)CN(CCN(CC(N)=O)CC(=O)OCC(C)C)CC(N)=O [R1=H, R2=H, R3=CH2 CH(CH3)2, NN'-Di-isobutoxycarbonylmethyl-NN'-diaminocarbonylmethyl-1,2-diaminoethane]
- IC50 [1]: 103 µM
- IC50 [2]: 121 µM

Structure (SMILES): NC(=O)CN(CCN(CC(N)=O)CC(=O)OCC(=O)O)CC(=O)OCC(=O)O [R1=H, R2=H, R3=CH2 CO2 H, NN'-Di-(carboxymethyloxycarbonylmethyl)-NN'-diaminocarbonylmethyl-1,2-diamonoethane]
- IC50 [1]: 67 µM
- IC50 [2]: 46 µM

Structure (SMILES): C[C@H]([C@H](C)N(CC(N)=O)CC(=O)OCC(=O)O)N(CC(N)=O)CC(=O)OCC(=O)O [R1=CH3, R2=CH3, R3=CH2 CO2 H, meso-NN'-Di-(carboxymethyloxycarbonylmethyl)-NN'-diaminocarbonylmethyl-2,3-diaminobutane]
- IC50 [1]: 0.2 µM
- IC50 [2]: 1.1 µM

Structure (SMILES): CC(CN(CC(N)=O)CC(=O)OCc1ccccc1[N+](=O)[O-])N(CC(N)=O)CC(=O)OCc1ccccc1[N+](=O)[O-] (racemic) [R1=CH3, R2=H, R3=o-NO2 --CH2 C6 H5, dl-NN'-Di-o-nitrobenzyloxycarbonylmethyl)-NN'-diaminocarbonylmethyl-1,2-diaminopropane]
- IC50 [1]: 11 µM
- IC50 [2]: 16 µM
